Test results reported in patent US20050192262A1, “Treatment of tumours” (priority 2001, published 2005).
Like-named read-outs stand apart in the source and are kept apart here.

Tests used:
β-catenin = test: Western blotting of Dunning AT-1 rat prostate tumours; type: in vivo; conditions: Animals II; exposure 80 hours in all arms
Protocol: (§1) The animal experiment described above was repeated.
Thawed rat tumours from both experiments above were homogenized in ice cold lysis-buffer. (160 mM NaCl, 10 mM HEPES, 2 mM CaCl2, 5% SDS, 0.5% Triton X-100, 100 μg/ml phenyl-metylsulfonyl fluoride, 1 μg/ml leupeptin and 2 μg/ml aprotinin), placed on ice for 15 minutes and following clarification centrifuged for 10 minutes at 13,000 g. Protein content of homogenates were determined by Lowry assay.
Protein in lysates (90 μg) were separated by electrophoresis using 8% SDS-PAGE and separated proteins were transferred onto a nitrocellulose membrane (Amersham) in trans-blot electrophoretic transfer cell (Bio-Rad Laboratories).
After washing in TTBS the blots were reincubated with horseradish peroxidase conjugated secondary antibody (anti-goat antibodies 2020, Santa Cruz) diluted 1:4000 in TTBS containing 3% (w/v) non-fat, dried milk for one hour. Blots were developed using an enhanced chemiluminescence system (ECL, Amersham) and exposed to Hyperfilm ECL (Amersham). Optical density was measured densitometrically.
The blots were striped and rehybridized with antibodies against β-catenin (C-18, sc. 1496) and COX-2 (C-20, sc 1745) antibodies.
In the second animal experiment tumours were investigated for expression of β-catenin, COX-2 and cyclin D1 (A-12, sc. 8396).

PPARγ [1] = molecular target: T1, PPARγ (Mus musculus, UniProt P37238); test: Ligand-induced coactivator interaction assay (GST-PPARγ / SRC-1); type: biochemical; conditions: for PPARγ-ligand activity, steroid + liver cytosol + PAPS / PPARγ-ligand activity, native steroid + liver cytosol: second experiment; for PPARγ-ligand activity, steroid + liver cytosol + PAPS: active liver cytosol, sulfate formed in situ; for PPARγ-ligand activity, native steroid + liver cytosol: without PAPS
T1 construct: made in house; host or cells: E. coli strain Y 1090 (GST-PPARγ); TNT Coupled Reticulocyte Lysate System, Promega (SRC-1)
T1 sequence (P37238 whole entry): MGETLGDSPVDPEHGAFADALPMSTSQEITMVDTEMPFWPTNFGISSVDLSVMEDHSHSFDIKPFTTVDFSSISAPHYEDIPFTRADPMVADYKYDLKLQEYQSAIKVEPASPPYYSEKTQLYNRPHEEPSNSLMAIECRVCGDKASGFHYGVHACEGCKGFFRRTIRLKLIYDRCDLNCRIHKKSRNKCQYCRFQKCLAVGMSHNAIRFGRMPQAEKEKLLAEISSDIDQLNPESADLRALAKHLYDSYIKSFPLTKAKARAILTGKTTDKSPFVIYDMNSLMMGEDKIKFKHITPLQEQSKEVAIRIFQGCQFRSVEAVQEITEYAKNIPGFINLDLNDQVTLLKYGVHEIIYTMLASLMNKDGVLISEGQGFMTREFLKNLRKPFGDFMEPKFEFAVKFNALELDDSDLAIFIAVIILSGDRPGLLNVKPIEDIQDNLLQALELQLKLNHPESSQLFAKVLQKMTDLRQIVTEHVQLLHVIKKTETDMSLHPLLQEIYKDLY
T1 sequence (Q15788 whole entry partner): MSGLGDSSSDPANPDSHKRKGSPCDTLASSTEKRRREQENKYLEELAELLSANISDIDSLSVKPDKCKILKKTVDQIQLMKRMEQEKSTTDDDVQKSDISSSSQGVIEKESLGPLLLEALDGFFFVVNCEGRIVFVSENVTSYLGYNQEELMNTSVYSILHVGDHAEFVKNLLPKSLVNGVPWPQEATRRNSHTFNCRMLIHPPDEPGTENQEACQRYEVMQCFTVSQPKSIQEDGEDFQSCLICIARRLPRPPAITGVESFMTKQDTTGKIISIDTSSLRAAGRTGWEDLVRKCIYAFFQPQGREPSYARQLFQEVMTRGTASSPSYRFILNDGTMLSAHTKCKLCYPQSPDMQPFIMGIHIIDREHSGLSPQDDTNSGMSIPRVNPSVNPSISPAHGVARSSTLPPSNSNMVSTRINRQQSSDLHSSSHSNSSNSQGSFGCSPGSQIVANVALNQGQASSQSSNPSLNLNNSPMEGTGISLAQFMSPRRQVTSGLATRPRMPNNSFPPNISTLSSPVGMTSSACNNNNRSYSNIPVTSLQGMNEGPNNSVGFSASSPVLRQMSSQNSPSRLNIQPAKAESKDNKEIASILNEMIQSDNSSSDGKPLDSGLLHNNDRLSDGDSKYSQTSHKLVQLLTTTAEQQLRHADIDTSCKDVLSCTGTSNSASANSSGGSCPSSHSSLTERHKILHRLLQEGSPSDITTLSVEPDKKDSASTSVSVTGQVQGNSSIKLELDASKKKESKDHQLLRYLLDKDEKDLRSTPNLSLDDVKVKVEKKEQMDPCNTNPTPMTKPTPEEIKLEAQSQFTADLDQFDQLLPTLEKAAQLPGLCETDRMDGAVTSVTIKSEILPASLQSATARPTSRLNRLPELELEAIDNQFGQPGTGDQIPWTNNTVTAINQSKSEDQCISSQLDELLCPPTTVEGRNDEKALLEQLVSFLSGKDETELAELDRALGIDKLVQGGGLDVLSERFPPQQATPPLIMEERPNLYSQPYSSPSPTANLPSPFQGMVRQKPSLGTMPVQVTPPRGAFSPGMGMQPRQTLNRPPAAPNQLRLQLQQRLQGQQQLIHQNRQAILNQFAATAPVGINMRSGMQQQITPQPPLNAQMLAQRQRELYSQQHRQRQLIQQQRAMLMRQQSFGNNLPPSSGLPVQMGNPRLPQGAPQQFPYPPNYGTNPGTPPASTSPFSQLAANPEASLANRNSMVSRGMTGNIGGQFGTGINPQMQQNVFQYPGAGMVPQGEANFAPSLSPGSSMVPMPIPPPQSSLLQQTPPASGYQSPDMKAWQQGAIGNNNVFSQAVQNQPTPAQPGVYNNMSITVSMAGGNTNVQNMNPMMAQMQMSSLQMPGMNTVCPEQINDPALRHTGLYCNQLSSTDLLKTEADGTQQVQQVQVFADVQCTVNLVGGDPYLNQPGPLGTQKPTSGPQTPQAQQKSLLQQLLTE
Protocol: ApcDNA3-SRC-1 construct was used as template to prepare (^35S-methionine)-SRC-1 by in vitro transcription and translation using the TNT® Coupled Reticulocyte Lysate System (Promega).
Ligand-induced interactions between GST-PPARγ and SRC-1: To generate GST-PPARγ fusion protein, mouse PPARγcDNA was inserted into the NcoI-HindIII sites of pGEX-KG, and protein was then expressed in E. coli, strain Y 1090. The bacteria were lysed by sonication in TEDG buffer (50 mM Tris (pH 7.4), 1.5 mM EDTA, 10% glycerol, 0.4 M NaCl, 0.1 mM DTT) containing the following protease inhibitors: 0.5 mM PMSF, 1 mM benzamidine, 10 μg/ml leupeptin, 10 μg/ml antipain and […] aprotinin. The lysates were centrifuged at 100,000×g for 60 min in a SW 41 rotor using a Beckman L8-70 M ultracentrifuge. The fusion protein was immobilized on GSH Sepharose beads (Pharmacia) and then incubated with potential ligands in (FIG. 5) 10 mM Tris (pH7.4), 0.12 M KCl, 8% glycerol, 4 mM DTT, and 0.5% CHAPS (buffer AA) for 30 min at room temperature. Thereafter, (^35S methionine) SRC-1 (ca 0.1 μCi) was added, and the beads were incubated for another hour at 4° C. and then washed extensively with buffer A. SDS sample buffer was added to the beads, and the samples boiled prior to separation on 7.5% SDS-PAGE. Radioactivity was detected by autoradiography.
α- and β-AED were investigated in above assay for PPARγ ligand activity in 10 and 100 μM solutions in ethanol 10%, in distilled water. 10 μL aliquots of α-AED-solution or β-AED-solution were also added to a preparation of a male rat liver cytosolic preparation prepared as follows:
A homogenate of a rat liver, a known source of steroid sulphotransferase activity, was prepared using a food processor. The liver homogenate was protected from serine-proteases by the addition of 2 mmol of PMSF, 1 mmol of EDTA and 10 mmol Tris-HCl buffered to a pH of 7.40. The homogenate was prepared at 4° C. and then centrifuged at 15000 g for 10 minutes, followed by centrifugation at 100000 g for an hour at 4° C. The supernatant was divided into test tubes containing one of the following steroids: 17β-AED or 17α-AED in 5 μM concentration together with 100 μL of liver cytosol. One test tube served as positive control and contained SCR-1.
In a second experiment the following steroids were tested for activity: 17α-AED, 17OH-pregnenolone and 5-androstene-3β,7β,17α-triol with and without 10 μL of […] (PAPS), Sigma Chemicals, corresponding to 0.1 mg of PAPS. One test tube served as a positive control and contained SRC-1 Instead of steroid. One test tube contained liver cytosol where the steroid sulphotransferase was inactivated by heating to 45° C. for 30 minutes. Tubes were stirred at 20° C. for 1 hour and the contents were investigated in the receptor-coactivator assay for ligand activity (FIG. 5).
17α-AED was treated in the method described by Arnostova, Libuse M.; Pouzar, Vladimir; Drasar, Pavel. Inst. Org. Chem. Biochem., Czech. Acad. Sci., Prague, Czech. Synth. Commun. (1990), 20(10), 1521-9, where acetate is used as protection group and pyridine —SO3 complex as the sulfating agent. Deprotection with an excess of 0.8M NaOH in MeOH-water provides the desired hydroxy sulfate, which is investigated, for PPARγ-activity in the ligand-activated-coactivator receptor assay described above.

VEGF = test: Immunostaining of tumour sections against VEGF; type: in vivo, rat; conditions: Animals II
Protocol: Working dilution 1:100. As negative control antibody a mouse IgG, clone DAK-GO1, kappa, ×931, Dako, was used with a working dilution of 1:50.
as §1
(§2) Group 1 received a single dose of 10 mg 17α-AED sc. near tumour.
(§3) Group 2 received a single dose of 80 mg 17β-AED in the same way.
(§4) Group 3 received a single dose of 25 mg 17α OH-pregnenolone in the same way.
(§5) Group 4 received a single dose of 7.5 mg 5-androstene-3β,7β,17α-triol.

cyclin D1 = test: Western blotting of Dunning AT-1 rat prostate tumours; type: in vivo; conditions: Animals II; exposure 80 hours in all arms
Protocol: as §1, §2, §3, §4, §5
Protein content of homogenates were determined by Lowry assay.

SKBR-3 = test: Facscan viability (chlorofluoresceindiacetate / propidiumiodide); type: cell-based, human; conditions: 200 nM 17α-AED + rat liver cytosol + PAPS, Herceptin 1:150, 72 hours
Protocol: (§6) Effects of HER-2 and 17α-AED-3β-sulfate in breast and prostate cancer cell lines. Cell cultures of prostate cancer cell lines PC-3 and DU-145 as well as mammary cancer cell lines MCF-7 and SKBR-3 were grown in flasks as previously described in the presence or absence of a 200 nM 17α-AED. Cultures containing 17α-AED were further subdivided and these cultures were grown in the presence or absence of Herceptin®, her-2 antibodies, using a stem solution of 1 mg/ml which was further diluted, making the final concentration 1:150 In the cell suspension.
(§7) Representations of each cell line containing no steroid were also treated with herceptin as above. For each cell line and variation of treatment 3 different culture flasks were used.
(§8) Further, a mixture of 100 μL rat liver cytosol and 20 μL of 3′-phosphoadenosine-5′-phosphosulphate (PAPS), corresponding to approximately 0.16 mg of PAPS was shared between and added to cultures containing 17α-AED.
(§9) Finally, for each cell line three samples were kept as untreated controls.
(§10) To estimate the number of viable cells a solution of chlorofluoresceindiacetate was added to the cultures on the last day of culture. This chemical penetrates freely into cells, but is metabolized in the living cell into a form with green fluorescence unable to leave the cell. As counterstaining, to detect dead cells, propidiumiodide, giving a red fluorescence, was added 15 minutes before analyzing the samples in a Facscan. Time for 10000 cells to pass the detector in the Facscan was estimated in order to detect a possible growth inhibitory effect, not resulting in an increased number of dead cells.

DU-145 = test: as above; type: cell-based, human; conditions: 200 nM 17α-AED + rat liver cytosol + PAPS, Herceptin 1:150, 72 hours
Protocol: as §6, §7, §8, §9, §10

MCF-7 = test: as above; type: cell-based, human; conditions: 200 nM 17α-AED + rat liver cytosol + PAPS, Herceptin 1:150, 72 hours
Protocol: as §6, §7, §8, §9, §10

PC-3 = test: as above; type: cell-based, human; conditions: 200 nM 17α-AED + rat liver cytosol + PAPS, Herceptin 1:150, 72 hours
Protocol: as §6, §7, §8, §9, §10

PPARδ = test: Western blotting cell lines; type: cell-based, human; conditions: PC-3 and DU-145
From the text: (§11) Protein blotting was repeated for DU-145 and PC-3 cell lines, which were also investigated for expression of PPARδ through antibody (H-74, sc 7197).

PPARγ [2] = test: Western blotting cell lines; type: cell-based, human
From the text: as §11

[3] = test system: Dunning R 3327, AT-1, rat prostatic tumour; test: Tumour growth after s.c. injection near tumour; type: in vivo; conditions: Animals II; single s.c. injection in the proximity of the tumour
Protocol: as §1, §2, §3, §4, §5
A fifth group served as tumour bearing controls.

For `C[C@]12CC[C@H]3[C@@H]([C@@H](O)C=C4C[C@@H](O)CC[C@@]43C)[C@@H]1CC[C@H]2O` [5-androstene-3β,7β,17α-triol, 3β,7β,17α-trihydroxy-androst-5-en], the “expression of β-catenin” value (β-catenin) was “down-regulation”, the “PPARγ-ligand activity, steroid + liver cytosol + PAPS” value (PPARγ [1]) was “insignificant responses” and the “PPARγ-ligand activity, native steroid + liver cytosol” value (PPARγ [1]) was “insignificant responses”. The “staining for VEGF” value (VEGF) was “almost complete disappearance of detectable VEGF In tumours in 2 cases, a modest downregulation in 1 and unchanged appearance in 1” and the “expression of cyclin D1” value (cyclin D1) was “down-regulation”.
For `C[C@]12CC[C@H]3[C@@H](CC=C4C[C@@H](OS(=O)(=O)O)CC[C@@]43C)[C@@H]1CC[C@H]2O` [17α-AED-3βsulfate, 5-androstene-17α-ol-3β-sulfate], the “PPARγ-ligand activity of the 3β-sulfate” value (PPARγ [1]) was “shows PPARγ-activity”, the “PPARγ-ligand activity of the 3β-sulfate” value (PPARγ [1]; listed as 5-androstene-17α-ol-3β-sulfate) was “only sample demonstrating PPARγ-ligand activity” and the dead (SKBR-3) was 21%. It also gave a viable (SKBR-3) of 66%, a dead (DU-145) of 18% and a viable (DU-145) of 70%. The dead (MCF-7) was 15%, the viable (MCF-7) was 75% and the dead (PC-3) was 12%. For the same compound, the viable (PC-3) was 81%, the “expression of PPARδ” value (PPARδ) was “no effect” and the “expression of PPARγ” value (PPARγ [2]; DU-145, 100 nM, repeated experiment) was “Expression of PPARγ was observed”. The PPARγ expression (PPARγ [2]; PC-3 cells, 100 nM, repeated experiment) was “increased” and the “expression of PPARγ” value (PPARγ [2]; both cell lines (PC-3, DU-145)) was “increased the expression of PPARγ significantly”.
`CC(=O)[C@@]1(O)CC[C@H]2[C@@H]3CC=C4C[C@@H](O)CC[C@]4(C)[C@H]3CC[C@@]21C` [17αOH-pregnenolone, 17-hydroxy-pregnenolone (17α-OH)] was tested, and the “expression of β-catenin” value (β-catenin) was “same pattern, but even more marked”, the “PPARγ-ligand activity, steroid + liver cytosol + PAPS” value (PPARγ [1]) was “insignificant responses” and the “PPARγ-ligand activity, native steroid + liver cytosol” value (PPARγ [1]) was “insignificant responses”. For the same compound, the “staining for VEGF” value (VEGF) was “almost complete disappearance of staining for VEGF”, the tumour volumes [3] was about −50% and the “expression of cyclin D1” value (cyclin D1) was “same pattern, but even more marked”.
